Measurements: PubChem BioAssay AID228 (DTP/NCI, 2004)
Values joined by “and” are separate entries in the source; they are usually repeats but may differ in a detail not shown here. Identical values can stand only once. Records with an inconclusive call do not appear.

System: BDF1 mice, Friend leukemia sc, tumor weight T/C
Assay: NCI In Vivo Anticancer Drug Screen. Data for tumor model Friend Virus Leukemia (Solid) (subcutaneous) in B6D2F1 (BDF1) mice
Details: endpoint: mean tumor weight, higher = larger tumour
Experimental: The antitumor activity of compounds was measured in mice bearing transplantable tumors. Survival or tumor size were measured and the results are expressed as the measurement made in the treated group (T) divided by the measurement made in the vehicle treated control group (C). The tumor model used in this assay is Friend Virus Leukemia (Solid) (subcutaneous) in B6D2F1 (BDF1) mice

[1] = dose: 77.0 mg/kg/injection, schedule: Q01DX011 (ip), vehicle: carboxymethylcellulose (CMC)
[2] = dose: 1.0 mg/kg/injection, schedule: Q01DX011 (ip), vehicle: carboxymethylcellulose (CMC)
[3] = dose: 2.0 mg/kg/injection, schedule: Q01DX011 (ip), vehicle: carboxymethylcellulose (CMC)
[4] = dose: 4.0 mg/kg/injection, schedule: Q01DX011 (ip), vehicle: carboxymethylcellulose (CMC)
[5] = dose: 8.0 mg/kg/injection, schedule: Q01DX011 (ip), vehicle: carboxymethylcellulose (CMC)
[6] = dose: 3.75 mg/kg/injection, schedule: Q01DX011 (ip), vehicle: carboxymethylcellulose (CMC)
[7] = dose: 5.0 mg/kg/injection, schedule: Q01DX011 (ip), vehicle: carboxymethylcellulose (CMC)
[8] = dose: 3.0 mg/kg/injection, schedule: Q01DX011 (ip), vehicle: carboxymethylcellulose (CMC)
[9] = dose: 6.0 mg/kg/injection, schedule: Q01DX011 (ip), vehicle: carboxymethylcellulose (CMC)
[10] = dose: 20.0 mg/kg/injection, schedule: Q01DX011 (ip), vehicle: carboxymethylcellulose (CMC)
[11] = dose: 40.0 mg/kg/injection, schedule: Q01DX011 (ip), vehicle: carboxymethylcellulose (CMC)
[12] = dose: 80.0 mg/kg/injection, schedule: Q01DX011 (ip), vehicle: carboxymethylcellulose (CMC)

## NNC(=O)NC(=O)NN
dose: 9.62 mg/kg/injection, schedule: Q01DX011 (ip), vehicle: carboxymethylcellulose (CMC)
  T/C: 90 % of control
dose: 19.25 mg/kg/injection, schedule: Q01DX011 (ip), vehicle: carboxymethylcellulose (CMC)
  T/C: 100 % of control
[1]
  T/C: 105 % of control

## C[C@]12CC[C@@H]3c4ccc(OC(=O)c5ccccc5)cc4CC[C@H]3[C@@H]1CC[C@@H]2O
dose: 77.25 mg/kg/injection, schedule: Q01DX011 (sc), vehicle: steriod suspending solution
  T/C: 102 % of control
dose: 154.5 mg/kg/injection, schedule: Q01DX011 (sc), vehicle: steriod suspending solution
  T/C: 112 % of control

## N=C(N)c1ccc(Nc2ccc(C(=N)N)cc2)cc1
dose: 5.0 mg/kg/injection, schedule: Q01DX011 (ip), vehicle: water
  T/C: 186 % of control
dose: 7.5 mg/kg/injection, schedule: Q01DX011 (ip), vehicle: water
  T/C: 164 % of control
dose: 10.0 mg/kg/injection, schedule: Q01DX011 (ip), vehicle: water
  T/C: 154 % of control
dose: 15.0 mg/kg/injection, schedule: Q01DX011 (ip), vehicle: water
  T/C: 180 % of control

## CN1CCC23c4c5ccc(O)c4OC2C(O)C=CC3C1C5 (centres undefined)
dose: 62.0 mg/kg/injection, schedule: Q01DX011 (ip), vehicle: saline
  T/C: 116 % of control
dose: 125.0 mg/kg/injection, schedule: Q01DX011 (ip), vehicle: saline
  T/C: 172 % of control
dose: 250.0 mg/kg/injection, schedule: Q01DX011 (ip), vehicle: saline
  T/C: 118 % of control

## CCCCCCCCCCCCn1c(C)nc2ccccc21
[2]
  T/C: 114 % of control
[3]
  T/C: 75 % of control
[4]
  T/C: 97 % of control
[5]
  T/C: 76 % of control

## Oc1cc(CN(CCCl)CCCl)c(O)cc1CN(CCCl)CCCl
dose: 0.44 mg/kg/injection, schedule: Q01DX011 (ip), vehicle: carboxymethylcellulose (CMC)
  T/C: 63 % of control
dose: 0.88 mg/kg/injection, schedule: Q01DX011 (ip), vehicle: carboxymethylcellulose (CMC)
  T/C: 86 % of control

## N[C@@H](Cc1ccc(N(CCCl)CCCl)cc1)C(=O)O
dose: 1.25 mg/kg/injection, schedule: Q01DX011 (ip), vehicle: carboxymethylcellulose (CMC)
  T/C: 84 % of control
dose: 2.5 mg/kg/injection, schedule: Q01DX011 (ip), vehicle: carboxymethylcellulose (CMC)
  T/C: 50 % of control
[6]
  T/C: 53 % of control
[4]
  T/C: 35 % of control
[7]
  T/C: 35 % of control

## COc1ccc2c3c1OC1C(O)C=CC4C(C2)N(C)CCC341 (centres undefined)
dose: 37.5 mg/kg/injection, schedule: Q01DX011 (ip), vehicle: saline
  T/C: 93 % of control
dose: 50.0 mg/kg/injection, schedule: Q01DX011 (ip), vehicle: saline
  T/C: 119 % of control
dose: 75.0 mg/kg/injection, schedule: Q01DX011 (ip), vehicle: saline
  T/C: 108 % of control

## O=C(c1ccc(C(=O)N2CC2)cc1)N1CC1
[8]
  T/C: 79 % of control
[9]
  T/C: 90 % of control
dose: 12.0 mg/kg/injection, schedule: Q01DX011 (ip), vehicle: carboxymethylcellulose (CMC)
  T/C: 74 % of control
dose: 24.0 mg/kg/injection, schedule: Q01DX011 (ip), vehicle: carboxymethylcellulose (CMC)
  T/C: 76 % of control

## Nc1nc2ncc(CNc3ccc(C(=O)NC(CCC(=O)O)C(=O)O)cc3)nc2c(=O)[nH]1 (centres undefined)
dose: 7.0 mg/kg/injection, schedule: Q01DX011 (ip), vehicle: carboxymethylcellulose (CMC)
  T/C: 56 % of control
dose: 14.0 mg/kg/injection, schedule: Q01DX011 (ip), vehicle: carboxymethylcellulose (CMC)
  T/C: 105 % of control
dose: 28.0 mg/kg/injection, schedule: Q01DX011 (ip), vehicle: carboxymethylcellulose (CMC)
  T/C: 79 % of control
dose: 56.0 mg/kg/injection, schedule: Q01DX011 (ip), vehicle: carboxymethylcellulose (CMC)
  T/C: 70 % of control

## Cn1c(=O)c2[nH]c(CCCc3nc4c([nH]3)c(=O)n(C)c(=O)n4C)nc2n(C)c1=O
[10]
  T/C: 101 % of control
[11]
  T/C: 94 % of control
[12]
  T/C: 44 % of control

## CC/C(=C(/CC)c1ccc(O)cc1)c1ccc(O)cc1
dose: 6.5 mg/kg/injection, schedule: Q01DX011 (sc), vehicle: steriod suspending solution
  T/C: 171 % of control and 244 % of control
dose: 13.0 mg/kg/injection, schedule: Q01DX011 (sc), vehicle: steriod suspending solution
  T/C: 169 % of control
dose: 26.0 mg/kg/injection, schedule: Q01DX011 (sc), vehicle: steriod suspending solution
  T/C: 119 % of control and 121 % of control
dose: 52.0 mg/kg/injection, schedule: Q01DX011 (sc), vehicle: steriod suspending solution
  T/C: 83 % of control

## O=C(Nc1ccc(C2=NCCCN2)cc1)c1ccc(C(=O)Nc2ccc(C3=NCCCN3)cc2)cc1
dose: 0.75 mg/kg/injection, schedule: Q01DX011 (ip), vehicle: carboxymethylcellulose (CMC)
  T/C: 121 % of control
dose: 1.5 mg/kg/injection, schedule: Q01DX011 (ip), vehicle: carboxymethylcellulose (CMC)
  T/C: 102 % of control
[8]
  T/C: 44 % of control
[6]
  T/C: 75 % of control
[7]
  T/C: 42 % of control
[9]
  T/C: 64 % of control
dose: 7.5 mg/kg/injection, schedule: Q01DX011 (ip), vehicle: carboxymethylcellulose (CMC)
  T/C: 10 % of control

## O=C1CN(/N=C\c2ccc([N+](=O)[O-])o2)C(=O)N1
dose: 4.7 mg/kg/injection, schedule: Q01DX011 (ip), vehicle: carboxymethylcellulose (CMC)
  T/C: 101 % of control
dose: 9.5 mg/kg/injection, schedule: Q01DX011 (ip), vehicle: carboxymethylcellulose (CMC)
  T/C: 91 % of control and 96 % of control
dose: 19.0 mg/kg/injection, schedule: Q01DX011 (ip), vehicle: carboxymethylcellulose (CMC)
  T/C: 96 % of control and 100 % of control

## NC(Cc1ccc(N(CCCl)CCCl)cc1)C(=O)O (centres undefined)
dose: 0.32 mg/kg/injection, schedule: Q01DX011 (ip), vehicle: carboxymethylcellulose (CMC)
  T/C: 101 % of control
dose: 0.64 mg/kg/injection, schedule: Q01DX011 (ip), vehicle: carboxymethylcellulose (CMC)
  T/C: 87 % of control
[2]
  T/C: 65 % of control
dose: 1.28 mg/kg/injection, schedule: Q01DX011 (ip), vehicle: carboxymethylcellulose (CMC)
  T/C: 101 % of control
[3]
  T/C: 60 % of control
dose: 2.56 mg/kg/injection, schedule: Q01DX011 (ip), vehicle: carboxymethylcellulose (CMC)
  T/C: 70 % of control
[8]
  T/C: 57 % of control
[4]
  T/C: 32 % of control
[7]
  T/C: 36 % of control
[9]
  T/C: 13 % of control
[5]
  T/C: 7 % of control

## CC1CCOS(=O)O1 (centres undefined)
dose: 10.0 mg/kg/injection, schedule: Q01DX011 (ip), vehicle: carboxymethylcellulose (CMC)
  T/C: 123 % of control
[10]
  T/C: 84 % of control
[11]
  T/C: 72 % of control
[12]
  T/C: 32 % of control

## CCC(C)C(NN)C(=O)O (centres undefined)
dose: 2.5 mg/kg/injection, schedule: Q01DX011 (ip), vehicle: other
  T/C: 84 % of control
dose: 5.0 mg/kg/injection, schedule: Q01DX011 (ip), vehicle: other
  T/C: 104 % of control
dose: 10.0 mg/kg/injection, schedule: Q01DX011 (ip), vehicle: other
  T/C: 81 % of control
dose: 20.0 mg/kg/injection, schedule: Q01DX011 (ip), vehicle: other
  T/C: 89 % of control
dose: 40.0 mg/kg/injection, schedule: Q01DX011 (ip), vehicle: other
  T/C: 83 % of control
dose: 50.0 mg/kg/injection, schedule: Q01DX011 (ip), vehicle: other
  T/C: 21 % of control

## c1ccc2[nH]cnc2c1
dose: 38.5 mg/kg/injection, schedule: Q01DX011 (ip), vehicle: carboxymethylcellulose (CMC)
  T/C: 82 % of control and 88 % of control
[1]
  T/C: 80 % of control and 83 % of control
dose: 308.0 mg/kg/injection, schedule: Q01DX011 (ip), vehicle: carboxymethylcellulose (CMC)
  T/C: 102 % of control

## COc1ccccc1NC(=O)CSC(N)=O
dose: 100.0 mg/kg/injection, schedule: Q01DX011 (ip), vehicle: carboxymethylcellulose (CMC)
  T/C: 91 % of control
dose: 200.0 mg/kg/injection, schedule: Q01DX011 (ip), vehicle: carboxymethylcellulose (CMC)
  T/C: 104 % of control
dose: 400.0 mg/kg/injection, schedule: Q01DX011 (ip), vehicle: carboxymethylcellulose (CMC)
  T/C: 71 % of control

## CCCCNc1ncnc2c1cnn2C
dose: 4.0 mg/kg/injection, schedule: Q01DX011 (ip), vehicle: saline
  T/C: 150 % of control
dose: 16.0 mg/kg/injection, schedule: Q01DX011 (ip), vehicle: saline
  T/C: 117 % of control
dose: 31.0 mg/kg/injection, schedule: Q01DX011 (ip), vehicle: saline
  T/C: 84 % of control

## CCCC(Sc1nc(N)nc2nc[nH]c12)C(=O)O (centres undefined)
[11]
  T/C: 77 % of control
[12]
  T/C: 45 % of control
dose: 160.0 mg/kg/injection, schedule: Q01DX011 (ip), vehicle: carboxymethylcellulose (CMC)
  T/C: 5 % of control
